Test results: PubChem BioAssay (NCI)
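GI50 is the concentration that inhibits growth by half. Definition used: TGI = concentration required for complete inhibition of growth.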

Legend:
Assay in all cases: NCI anticancer screen, dose series, 384-well format
786-0 renal = system: 786-0 renal
A498 renal = system: A498 renal
A549 NSCLC = system: A549 NSCLC
ACHN renal = system: ACHN renal
BT-549 breast = system: BT-549 breast
CAKI-1 renal = system: CAKI-1 renal
CCRF-CEM leukemia = system: CCRF-CEM leukemia
COLO 205 colon = system: COLO 205 colon
DU-145 prostate = system: DU-145 prostate
EKVX NSCLC = system: EKVX NSCLC
HCC-2998 colon = system: HCC-2998 colon
HCT-116 colon = system: HCT-116 colon
HCT-15 colon = system: HCT-15 colon
HL-60(TB) leukemia = system: HL-60(TB) leukemia
HOP-62 NSCLC = system: HOP-62 NSCLC
HOP-92 NSCLC = system: HOP-92 NSCLC
HS 578T breast = system: HS 578T breast
HT29 colon = system: HT29 colon
IGROV1 ovarian = system: IGROV1 ovarian
K-562 leukemia = system: K-562 leukemia
KM12 colon = system: KM12 colon
LOX IMVI melanoma = system: LOX IMVI melanoma
M14 melanoma = system: M14 melanoma
MALME-3M melanoma = system: MALME-3M melanoma
MCF7 breast = system: MCF7 breast
MDA-MB-231 breast = system: MDA-MB-231 breast
MDA-MB-435 melanoma = system: MDA-MB-435 melanoma
MDA-MB-468 breast = system: MDA-MB-468 breast
MOLT-4 leukemia = system: MOLT-4 leukemia
NCI-H226 lung = system: NCI-H226 lung
NCI-H23 lung = system: NCI-H23 lung
NCI-H322M lung = system: NCI-H322M lung
NCI-H460 NSCLC = system: NCI-H460 NSCLC
NCI-H522 lung = system: NCI-H522 lung
NCI/ADR-RES ovarian = system: NCI/ADR-RES ovarian
OVCAR-3 ovarian = system: OVCAR-3 ovarian
OVCAR-4 ovarian = system: OVCAR-4 ovarian
OVCAR-5 ovarian = system: OVCAR-5 ovarian
OVCAR-8 ovarian = system: OVCAR-8 ovarian
PC-3 prostate = system: PC-3 prostate
RPMI-8226 leukemia = system: RPMI-8226 leukemia
SF-268 CNS = system: SF-268 CNS
SF-295 CNS = system: SF-295 CNS
SF-539 CNS = system: SF-539 CNS
SK-MEL-2 melanoma = system: SK-MEL-2 melanoma
SK-MEL-28 melanoma = system: SK-MEL-28 melanoma
SK-MEL-5 melanoma = system: SK-MEL-5 melanoma
SK-OV-3 ovarian = system: SK-OV-3 ovarian
SN12C renal = system: SN12C renal
SNB-19 CNS = system: SNB-19 CNS
SNB-75 CNS = system: SNB-75 CNS
SR leukemia = system: SR leukemia
SW-620 colon = system: SW-620 colon
T-47D breast = system: T-47D breast
TK-10 renal = system: TK-10 renal
U251 glioblastoma = system: U251 glioblastoma
UACC-257 melanoma = system: UACC-257 melanoma
UACC-62 melanoma = system: UACC-62 melanoma
UO-31 renal = system: UO-31 renal

CO[C@H]1C[C@@H]2CC[C@@H](C)[C@@](O)(O2)C(=O)C(=O)N2CCCC[C@H]2C(=O)O[C@H]([C@H](C)C[C@@H]2CC[C@@H](OCCO)[C@H](OC)C2)CC(=O)[C@H](C)C=C(C)[C@@H](O)[C@@H](OC)C(=O)[C@H](C)C[C@H](C)/C=C/C=C/C=C1C
GI50 ([…]-0 renal): 0.777 µM | TGI (786-0 renal): 21.1 µM | GI50 (A498 renal): < 0.0276 µM | TGI (A498 renal): 17.4 µM | TGI (A549 NSCLC): 20 µM | GI50 (ACHN renal): 2.93 µM | TGI (ACHN renal): 22.2 µM | TGI (BT-549 breast): 15.6 µM | GI50 (CAKI-1 renal): 5.67 µM | TGI (CAKI-1 renal): 21.4 µM | GI50 (CCRF-CEM leukemia): < 0.01 µM | TGI (CCRF-CEM leukemia): 2.84 µM | GI50 (COLO 205 colon): 14.6 µM | TGI (COLO 205 colon): 27.7 µM | GI50 (DU-145 prostate): 7.21 µM | TGI (DU-145 prostate): 23.4 µM | GI50 (EKVX NSCLC): 1.79 µM | TGI (EKVX NSCLC): 20.4 µM | GI50 (HCC-2998 colon): 7.55 µM | TGI (HCC-2998 colon): 22.9 µM | GI50 (HCT-116 colon): 8.33 µM | TGI (HCT-116 colon): 21.9 µM | GI50 (HCT-15 colon): 1.43 µM | TGI (HCT-15 colon): 18.7 µM | GI50 (HL-60(TB) leukemia): 2.16 µM | TGI (HL-60(TB) leukemia): 6.09 µM | GI50 (HOP-62 NSCLC): 0.548 µM | TGI (HOP-62 NSCLC): 20.7 µM | GI50 (HOP-92 NSCLC): 11.2 µM | TGI (HOP-92 NSCLC): 23.4 µM | TGI (HS 578T breast): 7.24 µM | GI50 (HT29 colon): 11.5 µM | TGI (HT29 colon): 23.7 µM | GI50 (IGROV1 ovarian): < 0.01 µM | TGI (IGROV1 ovarian): 11.2 µM | GI50 (K-562 leukemia): 2.04 µM | TGI (K-562 leukemia): 15.3 µM | GI50 (KM12 colon): 11.2 µM | TGI (KM12 colon): 23.3 µM | GI50 (LOX IMVI melanoma): 6.02 µM | TGI (LOX IMVI melanoma): 20.9 µM | GI50 (M14 melanoma): 12.1 µM | TGI (M14 melanoma): 24.5 µM | GI50 (MALME-3M melanoma): < 0.01 µM | TGI (MALME-3M melanoma): 14.6 µM | GI50 (MCF7 breast): < 0.0154 µM | TGI (MCF7 breast): 12.9 µM | GI50 (MDA-MB-231 breast): 12.5 µM | TGI (MDA-MB-231 breast): 25.1 µM | GI50 (MDA-MB-435 melanoma): 16.2 µM | TGI (MDA-MB-435 melanoma): 29.9 µM | GI50 (MDA-MB-468 breast): < 0.01 µM | TGI (MDA-MB-468 breast): 8.91 µM | GI50 (MOLT-4 leukemia): < 0.01 µM | TGI (MOLT-4 leukemia): 2.24 µM | GI50 (NCI-H226 lung): 9.49 µM | TGI (NCI-H226 lung): 21.8 µM | GI50 (NCI-H23 lung): 11.6 µM | TGI (NCI-H23 lung): 23.9 µM | GI50 (NCI-H322M lung): 6.97 µM | TGI (NCI-H322M lung): 22.1 µM | GI50 (NCI-H460 NSCLC): 0.377 µM | TGI (NCI-H460 NSCLC): 18.7 µM | GI50 (NCI-H522 lung): 9.37 µM | TGI (NCI-H522 lung): 22 µM | GI50 (NCI/ADR-RES ovarian): 13.5 µM | TGI (NCI/ADR-RES ovarian): 28.7 µM | GI50 (OVCAR-3 ovarian): 4.68 µM | TGI (OVCAR-3 ovarian): 21.8 µM | GI50 (OVCAR-4 ovarian): 10.8 µM | TGI (OVCAR-4 ovarian): 24.1 µM | GI50 (OVCAR-5 ovarian): 15.2 µM | TGI (OVCAR-5 ovarian): 29.1 µM | GI50 (OVCAR-8 ovarian): 10.9 µM | TGI (OVCAR-8 ovarian): 22.8 µM | GI50 (PC-3 prostate): 0.549 µM | TGI (PC-3 prostate): 17.7 µM | GI50 (RPMI-8226 leukemia): < 0.01 µM | TGI (RPMI-8226 leukemia): 1.87 µM | GI50 (SF-268 CNS): 12.6 µM | TGI (SF-268 CNS): 25.3 µM | TGI (SF-295 CNS): 16 µM | GI50 (SF-539 CNS): 3.06 µM | TGI (SF-539 CNS): 19.7 µM | GI50 (SK-MEL-2 melanoma): 14.2 µM | TGI (SK-MEL-2 melanoma): 27.2 µM | GI50 (SK-MEL-28 melanoma): 11.9 µM | TGI (SK-MEL-28 melanoma): 16.5 µM | GI50 (SK-MEL-5 melanoma): 0.414 µM | TGI (SK-MEL-5 melanoma): 3.78 µM | GI50 (SK-OV-3 ovarian): 12.1 µM | TGI (SK-OV-3 ovarian): 25.4 µM | GI50 (SN12C renal): 11.7 µM | TGI (SN12C renal): 24.2 µM | GI50 (SNB-19 CNS): 12.8 µM | TGI (SNB-19 CNS): 25.5 µM | GI50 (SNB-75 CNS): 0.124 µM | TGI (SNB-75 CNS): 4.55 µM | GI50 (SR leukemia): < 0.01 µM | TGI (SR leukemia): 1.3 µM | GI50 (SW-620 colon): 11.8 µM | TGI (SW-620 colon): 16.4 µM | TGI (T-47D breast): 16.2 µM | GI50 (TK-10 renal): 13.6 µM | TGI (TK-10 renal): 31 µM | GI50 (U251 glioblastoma): 5.77 µM | TGI (U251 glioblastoma): 21.1 µM | GI50 (UACC-257 melanoma): 16.5 µM | TGI (UACC-257 melanoma): 30.1 µM | GI50 (UACC-62 melanoma): 6.61 µM | TGI (UACC-62 melanoma): 14.9 µM | GI50 (UO-31 renal): < 0.01 µM
